Test results published in patent US9527867B2, “Antibacterial biaromatic derivatives” (Actelion Pharmaceuticals Ltd., priority 2013, dated 2016).
In brackets after ≈: the same amount, converted by molar mass.

Experiments:
Assay in all cases: Bacterial growth minimal inhibitory concentration (broth microdilution, CLSI M7-A7)
Type in all cases: cell-based
[1] = system: Enterococcus faecium A949; conditions: multiply-resistant strain (in particular quinolone-resistant); for MIC: Enterococcus faecium, A949, cation-adjusted Mueller-Hinton Broth, read-out: MIC for E. faecium A949
Protocol: (§1) Minimal Inhibitory Concentrations (MICs; mg/L) were determined in cation-adjusted Mueller-Hinton Broth by a microdilution method following the description given in “Methods for Dilution Antimicrobial Susceptibility Tests for Bacteria that Grow Aerobically”, Approved standard, 7th ed., Clinical and Laboratory Standards Institute (CLSI) Document M7-A7, Wayne, Pa., USA (2006).
(§2) All Example compounds were tested against several Gram positive and Gram negative bacteria. […] Staphylococcus aureus A798, Enterococcus faecium A949 and Acinetobacter baumannii T6474 are multiply-resistant strains (in particular quinolone-resistant), while Moraxella catarrhalis A894 is a quinolone-sensitive strain and Staphylococcus aureus ATCC29213 is a methicillin-sensitive and quinolone-sensitive strain.

[2] = system: Staphylococcus aureus A798; conditions: multiply-resistant strain (in particular quinolone-resistant); for MIC: Staphylococcus aureus, A798, cation-adjusted Mueller-Hinton Broth, read-out: MIC for S. aureus A798
Protocol: as §1, §2

[3] = system: Moraxella catarrhalis A894; conditions: quinolone-sensitive strain; for MIC: Moraxella catarrhalis, A894, cation-adjusted Mueller-Hinton Broth
Protocol: as §1, §2

[4] = system: Acinetobacter baumannii T6474; conditions: multiply-resistant strain (in particular quinolone-resistant); for MIC: Acinetobacter baumannii, T6474, cation-adjusted Mueller-Hinton Broth
Protocol: as §1, §2

[5] = system: Staphylococcus aureus ATCC29213; conditions: methicillin-sensitive and quinolone-sensitive strain; for MIC: Staphylococcus aureus, ATCC29213, cation-adjusted Mueller-Hinton Broth, read-out: MIC for S. aureus ATCC29213
Protocol: as §1, §2

[6] = cation-adjusted Mueller-Hinton Broth

Row | MIC [1] [µg/mL] | MIC [2] [µg/mL] | MIC [3] [µg/mL] | MIC [4] [µg/mL] | MIC [5] [µg/mL] | MIC for E. faecium A949 [1, 6] [mg/L] | MIC for S. aureus A798 [2, 6] | MIC for M. catarrhalis A894 [3, 6] | MIC for A. baumannii T6474 [4, 6] [mg/L] | MIC for S. aureus ATCC29213 [5, 6] | Structure (SMILES)
1 | 0.125 (≈ 0.249 µM) | ≤ 0.016 | ≤ 0.016 | 0.031 (≈ 0.0617 µM) | ≤ 0.016 | – | – | – | – | – | N#Cc1cccc(-c2cccc(CNCC[C@H]3CN(c4ccc5c(n4)NC(=O)CS5)C(=O)O3)c2O)n1 [Example 94, 6-[2-hydroxy-3-({2-[(S)-2-oxo-3-(3-oxo-3,4-dihydro-2H-pyrido[3,2-b][1,4]thiazin-6-yl)-oxazolidin-5-yl]-ethylamino}-methyl)-phenyl]-pyridine-2-carbonitrile]
2 | 16 (≈ 34.1 µM) | 2 (≈ 4.26 µM) | ≤ 0.063 | 2 (≈ 4.26 µM) | 1 (≈ 2.13 µM) | – | – | – | – | – | N#Cc1ccc(-c2cccc(CNCC[C@H]3CN(c4ccc5c(n4)NC(=O)CO5)C(=O)O3)c2)cc1 [Example 66, 3′-({2-[(S)-2-oxo-3-(3-oxo-3,4-dihydro-2H-pyrido[3,2-b][1,4]oxazin-6-yl)-oxazolidin-5-yl]-ethylamino}-methyl)-biphenyl-4-carbonitrile]
3 | 2 (≈ 4.25 µM) | 0.5 (≈ 1.06 µM) | 0.031 (≈ 0.0659 µM) | 0.25 (≈ 0.531 µM) | 0.5 (≈ 1.06 µM) | – | – | – | – | – | N#Cc1cccc(-c2cc(CNCC[C@H]3CN(c4ccc5c(n4)NC(=O)CO5)C(=O)O3)ccn2)c1 [Example 46, 3-[4-({2-[(S)-2-oxo-3-(3-oxo-3,4-dihydro-2H-pyrido[3,2-b][1,4]oxazin-6-yl)-oxazolidin-5-yl]-ethylamino}-methyl)-pyridin-2-yl]-benzonitrile]
4 | 4 (≈ 8.39 µM) | 1 (≈ 2.1 µM) | 0.063 (≈ 0.132 µM) | 1 (≈ 2.1 µM) | 0.25 (≈ 0.525 µM) | – | – | – | – | – | COc1cccc(-c2nccc(CNCC[C@H]3CN(c4ccc5c(n4)NC(=O)CO5)C(=O)O3)n2)c1 [Example 102, 6-[(S)-5-(2-{[2-(3-methoxy-phenyl)-pyrimidin-4-ylmethyl]-amino}-ethyl)-2-oxo-oxazolidin-3-yl]-4H-pyrido[3,2-b][1,4]oxazin-3-one]
5 | 8 (≈ 16 µM) | 1 (≈ 2 µM) | ≤ 0.063 | 2 (≈ 4 µM) | 0.5 (≈ 1 µM) | – | – | – | – | – | COc1ccc(C#N)cc1-c1cccc(CNCC[C@H]2CN(c3ccc4c(n3)NC(=O)CO4)C(=O)O2)c1 [Example 76, 6-methoxy-3′-({2-[(S)-2-oxo-3-(3-oxo-3,4-dihydro-2H-pyrido[3,2-b][1,4]oxazin-6-yl)-oxazolidin-5-yl]-ethylamino}-methyl)-biphenyl-3-carbonitrile]
6 | 1 (≈ 2.01 µM) | 0.063 (≈ 0.127 µM) | ≤ 0.016 | 0.25 (≈ 0.503 µM) | 0.063 (≈ 0.127 µM) | – | – | – | – | – | COc1ccc(C#N)c(-c2cccc(CNCCc3cn(-c4ccc5c(n4)NC(=O)CO5)c(=O)o3)c2)c1 [Example 37, 5-methoxy-3′-({2-[2-oxo-3-(3-oxo-3,4-dihydro-2H-pyrido[3,2-b][1,4]oxazin-6-yl)-2,3-dihydro-oxazol-5-yl]-ethylamino}-methyl)-biphenyl-2-carbonitrile]
7 | 4 (≈ 8.17 µM) | 1 (≈ 2.04 µM) | 0.063 (≈ 0.129 µM) | 4 (≈ 8.17 µM) | 1 (≈ 2.04 µM) | – | – | – | – | – | COc1ccc(-c2cccc(CNCC[C@@H]3CN(c4ccc5c(c4)NC(=O)CS5)C(=O)O3)c2)cc1 [Example 6, 6-((R)-5-{2-[(4′-methoxy-biphenyl-3-ylmethyl)-amino]-ethyl}-2-oxo-oxazolidin-3-yl)-4H-benzo[1,4]thiazin-3-one]
8 | 4 (≈ 8.14 µM) | 0.5 (≈ 1.02 µM) | 0.063 (≈ 0.128 µM) | 1 (≈ 2.03 µM) | 0.5 (≈ 1.02 µM) | – | – | – | – | – | COc1cc(-c2cccc(CNCC[C@@H]3CN(c4ccc5c(c4)NC(=O)CS5)C(=O)O3)c2)ncn1 [Example 24, 6-((R)-5-{2-[3-(6-methoxy-pyrimidin-4-yl)-benzylamino]-ethyl}-2-oxo-oxazolidin-3-yl)-4H-benzo[1,4]thiazin-3-one]
9 | 4 (≈ 7.65 µM) | 0.25 (≈ 0.478 µM) | 0.063 (≈ 0.121 µM) | 1 (≈ 1.91 µM) | 0.25 (≈ 0.478 µM) | – | – | – | – | – | COc1nc(OC)nc(-c2cccc(CNCC[C@@H]3CN(c4ccc5c(c4)NC(=O)CS5)C(=O)O3)c2)n1 [Example 28, 6-((R)-5-{2-[3-(4,6-dimethoxy-[1,3,5]triazin-2-yl)-benzylamino]-ethyl}-2-oxo-oxazolidin-3-yl)-4H-benzo[1,4]thiazin-3-one]
10 | 2 (≈ 4.08 µM) | 0.063 (≈ 0.128 µM) | ≤ 0.016 | 0.5 (≈ 1.02 µM) | 0.125 (≈ 0.255 µM) | – | – | – | – | – | COc1cccc(-c2cccc(CNCC[C@H]3CN(c4ccc5c(c4)NC(=O)CS5)C(=O)O3)c2)n1 [Example 43, 6-((S)-5-{2-[3-(6-methoxy-pyridin-2-yl)-benzylamino]-ethyl}-2-oxo-oxazolidin-3-yl)-4H-benzo[1,4]thiazin-3-one]
11 | 8 (≈ 16.2 µM) | 0.063 (≈ 0.128 µM) | ≤ 0.016 | 0.125 (≈ 0.254 µM) | 0.063 (≈ 0.128 µM) | – | – | – | – | – | COc1cnnc(-c2cc(CNCC[C@H]3CN(c4ccc5c(n4)NC(=O)CO5)C(=O)O3)ccc2O)c1 [Example 89, 6-((S)-5-{2-[4-hydroxy-3-(5-methoxy-pyridazin-3-yl)-benzylamino]-ethyl}-2-oxo-oxazolidin-3-yl)-4H-pyrido[3,2-b][1,4]oxazin-3-one]
12 | > 8 | 8 (≈ 16.8 µM) | 0.25 (≈ 0.525 µM) | 4 (≈ 8.39 µM) | 4 (≈ 8.39 µM) | – | – | – | – | – | COc1cccc(-c2cc(CNCC[C@H]3CN(c4ccc5c(n4)NC(=O)CO5)C(=O)O3)cnn2)c1 [Example 105, 6-[(S)-5-(2-{[6-(3-methoxy-phenyl)-pyridazin-4-ylmethyl]-amino}-ethyl)-2-oxo-oxazolidin-3-yl]-4H-pyrido[3,2-b][1,4]oxazin-3-one]
13 | 8 (≈ 15.1 µM) | 2 (≈ 3.78 µM) | 0.5 (≈ 0.946 µM) | > 8 | 4 (≈ 7.57 µM) | – | – | – | – | – | O=C1COc2ccc(N3C[C@H](CCNCc4cccc(-c5cccc(OCC6CCC6)c5)c4)OC3=O)nc2N1 [Example 50, 6-((S)-5-{2-[(3′-cyclobutylmethoxy-biphenyl-3-ylmethyl)-amino]-ethyl}-2-oxo-oxazolidin-3-yl)-4H-pyrido[3,2-b][1,4]oxazin-3-one]
14 | – | – | – | – | – | 0.125 | ≦0.016 mg/L | ≦0.016 mg/L | 0.063 | ≦0.016 mg/L | COc1cccc(-c2cccc(CNCC[C@H]3CN(c4ccc5c(n4)NC(=O)CS5)C(=O)O3)c2O)n1 [Example 95, 6-((S)-5-{2-[2-hydroxy-3-(6-methoxy-pyridin-2-yl)-benzylamino]-ethy}-2-oxo-oxazolidin-3-yl)-4H-pyrido[3,2-b][1,4]thiazin-3-one]
15 | 4 (≈ 8.01 µM) | 0.5 (≈ 1 µM) | ≤ 0.016 | 8 (≈ 16 µM) | 0.125 (≈ 0.25 µM) | – | – | – | – | – | COc1cccc(-c2cccc(CNCC[C@H]3CN(c4ccc5c(n4)NC(=O)CO5)C(=O)O3)c2)c1C#N [Example 86, 3-methoxy-3′-({2-[(S)-2-oxo-3-(3-oxo-3,4-dihydro-2H-pyrido[3,2-b][1,4]oxazin-6-yl)-oxazolidin-5-yl]-ethylamino}-methyl)-biphenyl-2-carbonitrile]
16 | 4 (≈ 7.91 µM) | 0.5 (≈ 0.989 µM) | 0.063 (≈ 0.125 µM) | 1 (≈ 1.98 µM) | 0.5 (≈ 0.989 µM) | – | – | – | – | – | COc1cc(-c2cccc(CNCC[C@@H]3CN(c4ccc5c(c4)NC(=O)CS5)C(=O)O3)c2)ccc1O [Example 7, 6-((R)-5-{2-[(4′-hydroxy-3′-methoxy-biphenyl-3-ylmethyl)-amino]-ethyl}-2-oxo-oxazolidin-3-yl)-4H-benzo[1,4]thiazin-3-one]
17 | 0.5 (≈ 1.03 µM) | 0.063 (≈ 0.13 µM) | ≤ 0.016 | 0.125 (≈ 0.258 µM) | 0.063 (≈ 0.13 µM) | – | – | – | – | – | N#Cc1cccc(-c2cccc(CNCC[C@H]3CN(c4ccc5c(c4)NC(=O)CS5)C(=O)O3)c2)c1 [Example 3, 3′-({2-[(S)-2-oxo-3-(3-oxo-3,4-dihydro-2H-benzo[1,4]thiazin-6-yl)-oxazolidin-5-yl]-ethylamino}-methyl)-biphenyl-3-carbonitrile]
18 | 8 (≈ 16.8 µM) | 0.25 (≈ 0.525 µM) | 0.031 (≈ 0.0651 µM) | 0.25 (≈ 0.525 µM) | 0.25 (≈ 0.525 µM) | – | – | – | – | – | COc1cnnc(-c2cccc(CNCC[C@@H]3CN(c4ccc5c(n4)NC(=O)CO5)C(=O)O3)c2)c1 [Example 97, 6-((R)-5-{2-[3-(5-methoxy-pyridazin-3-yl)-benzylamino]-ethyl}-2-oxo-oxazolidin-3-yl)-4H-pyrido[3,2-b][1,4]oxazin-3-one]
19 | 16 (≈ 34 µM) | 2 (≈ 4.25 µM) | ≤ 0.063 | 1 (≈ 2.13 µM) | 0.5 (≈ 1.06 µM) | – | – | – | – | – | N#Cc1ncccc1-c1cccc(CNCC[C@H]2CN(c3ccc4c(n3)NC(=O)CO4)C(=O)O2)c1 [Example 73, 3-[3-({2-[(S)-2-oxo-3-(3-oxo-3,4-dihydro-2H-pyrido[3,2-b][1,4]oxazin-6-yl)-oxazolidin-5-yl]-ethylamino}-methyl)-phenyl]-pyridine-2-carbonitrile]

Row | Structure (SMILES) | MIC [1] [µg/mL] | MIC [2] [µg/mL] | MIC [3] [µg/mL] | MIC [4] [µg/mL] | MIC [5] [µg/mL] | MIC for E. faecium A949 [1, 6] [mg/L] | MIC for S. aureus A798 [2, 6] | MIC for M. catarrhalis A894 [3, 6] | MIC for A. baumannii T6474 [4, 6] [mg/L] | MIC for S. aureus ATCC29213 [5, 6]
20 | O=C1COc2ccc(N3C[C@H](CCNCc4cccc(-c5cccc(OCCCCO)c5)c4)OC3=O)nc2N1 [Example 67, 6-[(S)-5-(2-{[3′-(4-hydroxy-butoxy)-biphenyl-3-ylmethyl]-amino}-ethyl)-2-oxo-oxazolidin-3-yl]-4H-pyrido[3,2-b][1,4]oxazin-3-one] | 8 (≈ 15 µM) | 0.5 (≈ 0.939 µM) | 0.063 (≈ 0.118 µM) | 2 (≈ 3.76 µM) | 1 (≈ 1.88 µM) | – | – | – | – | –
